These results are taken from article PMC9885530, “Identification of Natural Products Inhibiting SARS-CoV-2 by Targeting Viral Proteases: A Combined in Silico and in Vitro Approach” (Journal of Natural Products, 2023).

For data set [1], the target named is SARS-CoV-2 M^pro (Severe acute respiratory syndrome coronavirus 2, UniProt P0DTD1). As to the kind of experiment: biochemical. The note with it: buffer with 5 mM DTT; for IC50: read-out: SARS-CoV-2 M^pro IC50; for inhibition at 20 µM: 20 μM compound, for values marked a the relative standard deviation of 6% applies, read-out: SARS-CoV-2 M^pro enzyme inhibition (%) 20 μM; for inhibition at 100 µM: 100 μM compound, read-out: SARS-CoV-2 M^pro enzyme inhibition (%) 100 μM. The data set is classed as biochemical.

Data set [2] relates to SARS-CoV-2. As to the kind of experiment: Antiviral assay in Calu-3 cells (spike staining). The data set is classed as cell-based.
In data set [3] the target is T1, M^pro (Severe acute respiratory syndrome coronavirus 2, UniProt P0DTD1). The data set is classed as binding. The following applies: 2 μM protein, 50 μM ligand.
The target in data set [4] is T1, M^pro. As to the kind of experiment: Competitive 1H CPMG relaxation dispersion NMR with compound 4 as reporter ligand. The following applies: competition with compound 4. The data set is classed as binding, SARS-CoV-2.
The nature of data set [5]: Cytotoxicity in Calu-3 cells. The following applies: human.
The test system of data set [6] is M^pro. The following applies: read-out: M^pro IC50 previously reported, cited from earlier work.
Data set [7] deals with T2, SARS-CoV-2 PLpro (Severe acute respiratory syndrome coronavirus 2, UniProt P0DTD1). As to the kind of experiment: biochemical. Set-up: papain-like protease (PL^pro; domain of nsp3); purchased Anaspec (Fremont, USA) AS-72263. The following applies: for SARS-CoV-2 PLpro inhibition % enzyme inhibition (20 µM): commercial Anaspec assay kit; for inhibition at 20 µM: read-out: SARS-CoV-2 PLpro inhibition % enzyme inhibition (20 µM).

Data set [8] relates to SARS-CoV-2. The data set is described as follows: Antiviral assay in Caco-2 cells. The data set is classed as cell-based.
A short description of data set [9]: Cytotoxicity in Caco-2 cells. The following applies: human.
In data set [10] the target is T2, SARS-CoV-2 PLpro. As to the kind of experiment: PL^pro fluorogenic peptide cleavage assay (substrate Z-RLRGG-AMC). The data set is classed as biochemical. Set-up: papain-like protease (PL^pro; domain of nsp3); His; purchased BPS Biosciences BPS-100735-1. The note with it: for inhibition at 20 µM: read-out: SARS-CoV-2 PL^pro enzyme inhibition (%) 20 μM; for inhibition at 100 µM: read-out: SARS-CoV-2 PL^pro enzyme inhibition (%) 100 μM.

Data set [11] can be described thus: in vitro. The note with it: human.
Data set [12] in a line: in vitro. The note with it: human, Caco-2.
[13] abbreviates: Severe acute respiratory syndrome coronavirus 2, Calu-3 cells, MOI 0.01, 48 h postinfection, read-out: Anti-SARS-CoV-2 activity IC50.
[14] abbreviates: Severe acute respiratory syndrome coronavirus 2, Caco-2, read-out: Anti SARS-CoV-2 activity Caco-2 IC50 (µM).
[15] abbreviates: Severe acute respiratory syndrome coronavirus 2, Calu-3, 48 h, read-out: Anti-SARS-CoV-2 activity IC50 (μM).

By IC50 is commonly meant the point on the concentration scale where inhibition reaches its midpoint. As a reminder, the inhibition is the percentage by which the read-out fell short of the control.

Values joined by “and” are separate entries in the source; they are usually repeats but may differ in a detail not shown here. Identical values can stand only once. Like-named read-outs stand apart in the source and are kept apart here.

For the compound `CC(C)=CC[C@]12Oc3cc(O)c([C@H]4C=C(C)C[C@H](c5ccc(O)cc5O)[C@H]4C(=O)c4ccc(O)cc4O)c(O)c3C(=O)[C@@]1(O)Oc1cc(O)ccc12` [Compound 12, sanggenon C], the IC50 was 7.24 µM and 7.2 µM in [1]; 4.6 µM in data set [2] (setting [13]). Moreover, the STD signals entry in data set [3] is listed as “no STD signals were detected”. In addition, in [4], the “displacement of reporter ligand 4 from M^pro (CPMG-RD)” value (shortened to “displacement”) is recorded as “displacement from the binding site”. In data set [5], the CC50 came to 23.6 µM.

Regarding `CC(C)=CC[C@@]12Oc3cc(O)c([C@H]4C=C(C)C[C@H](c5ccc(O)cc5O)[C@H]4C(=O)c4ccc(O)cc4O)c(O)c3C(=O)[C@]1(O)Oc1cc(O)ccc12` [Compound 13, sanggenon O], the IC50 in data set [1] amounted to 6.7 µM; in data set [2] (setting [13]), 8 µM. In addition, the STD signals entry in data set [3] is “no STD signals were detected”. For the same compound, in [4], the “displacement” value is reported as “did not significantly displace 4”. Further, the CC50 in data set [5] turned out to be 24.9 µM.

For `CC(=O)O[C@H](CC=C(C)C)C1=CC(=O)c2c(O)ccc(O)c2C1=O` [Compound 30, acetylshikonin], the IC50 in data set [6] (reported inhibition later described as assay artifact (ref 34)) was 3.8 µM; in data set [8] (setting [14]), more than 100 µM; in [2] (setting [13]) it was more than 100 µM; in data set [10] (Z-RLRGG-AMC substrate), 24.3 µM. For the same compound, the “SARS-CoV-2 PLpro inhibition % enzyme inhibition (20 µM)” value in [7] was “significant enzyme inhibition”. Also, the inhibition at 20 µM in data set [7] amounted to 100 ± 9.5%. In addition, the CC50 in data set [9] is 65.8 µM; in [5], more than 100 µM.

With `CC(C)=CCCC1=C[C@H](c2c(O)cc3c(c2O)C(=O)C[C@@H](c2ccc(O)cc2O)O3)[C@@H](C(=O)c2ccc(O)cc2O)[C@H](c2ccc(O)cc2O)C1` [Compound 15, sanggenon G], the CC50 in [11] is 49.1 µM. Moreover, in data set [1], the inhibition at 20 µM came out at 92.6%; the inhibition at 100 µM was determined as 99.6 ± 0.2%; the half-inhibitory concentration (IC50) was 4.82 µM and 4.8 µM. The “selectivity index (SI)” value in [2] (Calu-3 cells, cytotoxicity vs anti-SARS-CoV-2 activity) is 6.5 and > 5. Moreover, in data set [2] (setting [13]), the IC50 came to 7.6 µM. Besides, the STD signals result in data set [3] is recorded as “no STD signals were detected”. Besides, the “displacement” value in [4] is given as “displacement from the binding site”.

Take `COc1ccc2c(=O)c(Oc3ccc(C(=O)NC(C)Cc4c[nH]c5ccccc45)cc3)coc2c1` (stereo not shown) [Compound 42]: the CC50 in data set [11] and in data set [12] was more than 100 µM throughout. Besides, the “SARS-CoV-2 PLpro inhibition % enzyme inhibition (20 µM)” value in [7] is “significant enzyme inhibition”. The inhibition at 20 µM in [7] came to 82.3 ± 25.3%; in [10], 4.89 ± 1.3%. Moreover, the IC50 in data set [8] (Severe acute respiratory syndrome coronavirus 2, Caco-2 cells, read-out: Anti SARS-CoV-2 activity Caco-2 IC50) was 7.1 µM; in [2] (setting [15]) it was more than 100 µM. Besides, the inhibition at 100 µM in [10] turned out to be 8.8 ± 7%.

For the compound `O=c1cc(-c2ccccc2)oc2cc(O)c(O)c(O)c12` [Compound 4, baicalein, reference compound], the IC50 in data set [6] was 0.98 µM. In data set [1], the inhibition at 20 µM turned out to be 8.6% and the inhibition at 100 µM was 90 ± 1.4%.

Turning to `C=CCc1ccc(O)c(-c2ccc(O)c(CC=C)c2)c1` [Compound 35, honokiol], the “SARS-CoV-2 PLpro inhibition % enzyme inhibition (20 µM)” value in data set [7] is “significant enzyme inhibition”. The inhibition at 20 µM in data set [7] is 80.6 ± 9.9%; in [10], 4.9 ± 4.6%. Further, the concentration for half-maximal inhibition (IC50) in data set [8] (setting [14]) is 16.2 µM; in data set [2] (setting [15]), 28.4 µM. Besides, the CC50 is 91.2 µM in data set [9] and more than 20 µM in data set [5]. The “antiviral activity against SARS-CoV-2 (in words)” value in data set [2] (two different cell lines (Caco-2, Calu-3)) is recorded as “moderately acting antiviral compounds”. Also, the inhibition at 100 µM in data set [10] came out at 5.3 ± 3.2%.
